# Laboratory results published in patent US6706663B2, “Herbicidal 3-heterocyclic substituted benzisothiazole and benzisoxazole compounds” (Wyeth, priority 2000, dated 2004).
# How the values were obtained:
# [1] = test system: ECHCG (Echinochloa crus-galli); assay: Preemergence herbicidal evaluation; assay type: in vivo, (L.) Beau; conditions: rated 4-5 weeks after treatment
# In short: (§1)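 Visual 0-9 rating versus untreated control, taken four to five weeks post-treatment, scoring stand, vigor, malformation, size, chlorosis and overall appearance. Compound applied as aqueous acetone spray to freshly seeded soil cups, then kept under standard greenhouse care.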
# [2] = test system: SETVI (Setaria viridis); assay: Preemergence herbicidal evaluation; assay type: in vivo, (L.) Beau; conditions: rated 4-5 weeks after treatment
# In short: as §1
# [3] = test system: MOOVA (Monochoria vaginalis); assay: Flooded paddy, preemergence weed control; assay type: in vivo, Presl.; conditions: rated 3-4 weeks after treatment, 0-9 rating scale
# In short: (§2)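 Seeds or propagating organs were sown in the top 0.5 cm of silt loam soil, flooded, and the water kept 1.5 to 3 cm above the soil surface throughout. Plants were grown in the greenhouse and rated visually on a 0-9 scale against a control.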
# [4] = test system: ORYSAT (Rice, Tebonnet); assay: Preemergence herbicidal evaluation; assay type: in vivo, Oryza sativa, (L.) Tebonnet; conditions: rated 4-5 weeks after treatment
# [5] = test system: TRZAWR (Wheat, Winter, cv Riband); assay: Postemergence herbicidal evaluation; assay type: in vivo, Triticum aestivum; conditions: postemergence
# In short: (§3)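 Visual 0–9 injury scores versus control plants, covering stand, vigour, malformation, size, chlorosis and general appearance, taken four to five weeks post-spray and averaged over replicate tests. Plants were sprayed at roughly two weeks old and held on greenhouse benches.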
# [6] = test system: IPOHE (Ipomoea hederacea); assay: Postemergence herbicidal evaluation; assay type: in vivo, (L.) Jacq.; conditions: postemergence
# In short: as §3
# [7] = test system: ORYSAT (Rice, Tebonnet); assay: Postemergence herbicidal evaluation; assay type: in vivo, Oryza sativa, (L.) Tebonnet; conditions: postemergence
# In short: as §3
# [8] = test system: GALAP (Galium aparine); assay: Preemergence herbicidal evaluation; assay type: in vivo; conditions: rated 4-5 weeks after treatment
# In short: as §1
# [9] = test system: ABUTH (Abutilon theophrasti); assay: Postemergence herbicidal evaluation; assay type: in vivo, Medic.; conditions: postemergence
# In short: as §3
# [10] = test system: SETVI (Setaria viridis); assay: Postemergence herbicidal evaluation; assay type: in vivo, (L.) Beau; conditions: postemergence
# In short: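 ~2-wk seedlings; spray 0.0040–1.000 kg/ha in 50/50 acetone/water + 0.5% TWEEN 20, 40 psi nozzle. Greenhouse hold; visual 0–9 rating vs control at 4–5 wk; multiple tests averaged.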
# [11] = test system: SAGPY (Sagittaria pygmaea); assay: Flooded paddy, preemergence weed control; assay type: in vivo, L.; conditions: rated 3-4 weeks after treatment, 0-9 rating scale
# In short: as §2
# [12] = test system: GALAP (Galium aparine); assay: Postemergence herbicidal evaluation; assay type: in vivo; conditions: postemergence
# In short: as §3
# [13] = test system: CASOB (Cassia obtusifolia); assay: Postemergence herbicidal evaluation; assay type: in vivo, L.; conditions: postemergence
# In short: as §3
# [14] = test system: AMBEL (Ambrosia artemisifolia); assay: Postemergence herbicidal evaluation; assay type: in vivo, L.; conditions: postemergence
# In short: as §3
# [15] = test system: CHEAL (Chenopodium album); assay: Postemergence herbicidal evaluation; assay type: in vivo, L.; conditions: postemergence
# In short: as §3
# [16] = test system: CASOB (Cassia obtusifolia); assay: Preemergence herbicidal evaluation; assay type: in vivo, L.; conditions: rated 4-5 weeks after treatment
# In short: as §1
# [17] = test system: AMBEL (Ambrosia artemisifolia); assay: Preemergence herbicidal evaluation; assay type: in vivo, L.; conditions: rated 4-5 weeks after treatment
# In short: as §1
# [18] = test system: CHEAL (Chenopodium album); assay: Preemergence herbicidal evaluation; assay type: in vivo, L.; conditions: rated 4-5 weeks after treatment
# In short: as §1
# [19] = test system: CYPIR (Cyperus iria); assay: Flooded paddy, preemergence weed control; assay type: in vivo; conditions: rated 3-4 weeks after treatment, 0-9 rating scale
# In short: as §2
smiles,measurement,setting,value
"Cn1c(C(F)(F)F)cc(=O)n(-c2ccc3snc(C4=NCCO4)c3c2)c1=O [Compound 75, 1-methyl-3-[3(2-oxazolin-2-yl)-1,2-benzisothiazol-5-yl]-6-(trifluoromethyl)uracil]",Preemergence herbicidal rating ECHCG,[1]; Rate 0.0620 kg/ha,0.0
same,Preemergence herbicidal rating ECHCG,[1]; Rate 0.1250 kg/ha,1.0
same,Preemergence herbicidal rating ECHCG,[1]; Rate 0.2500 kg/ha,6.0
same,Preemergence herbicidal rating SETVI,[2]; Rate 0.0620 kg/ha,0.0
same,Preemergence herbicidal rating SETVI,[2]; Rate 0.1250 kg/ha,1.0
same,Preemergence herbicidal rating SETVI,[2]; Rate 0.2500 kg/ha,6.0
same,"herbicidal rating, MOOVA",[3]; rate 0.0080 kg/ha,0.0
same,"herbicidal rating, MOOVA",[3]; rate 0.0320 kg/ha,7.0
same,"herbicidal rating, MOOVA",[3]; rate 0.1250 kg/ha,9.0
same,Preemergence herbicidal rating ORYSAT,[4]; Rate 0.0620 kg/ha,0.0
same,Preemergence herbicidal rating ORYSAT,[4]; Rate 0.1250 kg/ha,2.0
same,Preemergence herbicidal rating ORYSAT,[4]; Rate 0.2500 kg/ha,7.0
same,TRZAWR herbicidal rating,[5]; rate 0.0320 kg/ha,2.0
same,TRZAWR herbicidal rating,[5]; rate 0.0620 kg/ha,3.5
same,IPOHE herbicidal rating,[6]; rate 0.0320 kg/ha,9.0
same,IPOHE herbicidal rating,[6]; rate 0.0620 kg/ha,9.0
same,ORYSAT herbicidal rating,[7]; rate 0.0320 kg/ha,2.5
same,ORYSAT herbicidal rating,[7]; rate 0.0620 kg/ha,3.5
same,Preemergence herbicidal rating GALAP,[8]; Rate 0.0620 kg/ha,5.0
same,Preemergence herbicidal rating GALAP,[8]; Rate 0.1250 kg/ha,7.0
same,Preemergence herbicidal rating GALAP,[8]; Rate 0.2500 kg/ha,9.0
same,ABUTH herbicidal rating,[9]; rate 0.0320 kg/ha,9.0
same,ABUTH herbicidal rating,[9]; rate 0.0620 kg/ha,9.0
same,SETVI herbicidal rating,[10]; rate 0.0320 kg/ha,2.0
same,SETVI herbicidal rating,[10]; rate 0.0620 kg/ha,4.0
same,"herbicidal rating, SAGPY",[11]; rate 0.0080 kg/ha,0.0
same,"herbicidal rating, SAGPY",[11]; rate 0.0320 kg/ha,4.5
same,"herbicidal rating, SAGPY",[11]; rate 0.1250 kg/ha,9.0
same,GALAP herbicidal rating,[12]; rate 0.0320 kg/ha,5.0
same,GALAP herbicidal rating,[12]; rate 0.0620 kg/ha,7.0
same,CASOB herbicidal rating,[13]; rate 0.0320 kg/ha,2.0
same,CASOB herbicidal rating,[13]; rate 0.0620 kg/ha,2.0
same,AMBEL herbicidal rating,[14]; rate 0.0320 kg/ha,9.0
same,AMBEL herbicidal rating,[14]; rate 0.0620 kg/ha,9.0
same,CHEAL herbicidal rating,[15]; rate 0.0320 kg/ha,7.0
same,CHEAL herbicidal rating,[15]; rate 0.0620 kg/ha,7.0
same,Preemergence herbicidal rating CASOB,[16]; Rate 0.0620 kg/ha,0.0
same,Preemergence herbicidal rating CASOB,[16]; Rate 0.1250 kg/ha,1.0
same,Preemergence herbicidal rating CASOB,[16]; Rate 0.2500 kg/ha,1.0
same,Preemergence herbicidal rating AMBEL,[17]; Rate 0.0620 kg/ha,1.0
same,Preemergence herbicidal rating AMBEL,[17]; Rate 0.1250 kg/ha,3.0
same,Preemergence herbicidal rating AMBEL,[17]; Rate 0.2500 kg/ha,7.0
same,Preemergence herbicidal rating CHEAL,[18]; Rate 0.0620 kg/ha,9.0
same,Preemergence herbicidal rating CHEAL,[18]; Rate 0.1250 kg/ha,6.0
same,Preemergence herbicidal rating CHEAL,[18]; Rate 0.2500 kg/ha,9.0
same,"herbicidal rating, CYPIR",[19]; rate 0.0080 kg/ha,0.0
same,"herbicidal rating, CYPIR",[19]; rate 0.0320 kg/ha,7.0
same,"herbicidal rating, CYPIR",[19]; rate 0.1250 kg/ha,9.0
"C=CC1COC(c2nsc3ccc(-n4c(=O)cc(C(F)(F)F)n(C)c4=O)cc23)O1 (stereo not drawn) [Compound 76, 1-methyl-6-(trifluoromethyl)-3-[3-(4-vinyl-1,3-dioxolan-2-yl)-1,2-benzisothiazol-5-yl]uracil]",Preemergence herbicidal rating ECHCG,[1]; Rate 0.0620 kg/ha,9.0
same,Preemergence herbicidal rating ECHCG,[1]; Rate 0.1250 kg/ha,9.0
same,Preemergence herbicidal rating ECHCG,[1]; Rate 0.2500 kg/ha,9.0
same,Preemergence herbicidal rating SETVI,[2]; Rate 0.0620 kg/ha,9.0
same,Preemergence herbicidal rating SETVI,[2]; Rate 0.1250 kg/ha,9.0
same,Preemergence herbicidal rating SETVI,[2]; Rate 0.2500 kg/ha,9.0
same,"herbicidal rating, MOOVA",[3]; rate 0.0080 kg/ha,9.0
same,"herbicidal rating, MOOVA",[3]; rate 0.0320 kg/ha,9.0
same,"herbicidal rating, MOOVA",[3]; rate 0.1250 kg/ha,9.0
same,Preemergence herbicidal rating ORYSAT,[4]; Rate 0.0620 kg/ha,7.0
same,Preemergence herbicidal rating ORYSAT,[4]; Rate 0.1250 kg/ha,8.5
same,Preemergence herbicidal rating ORYSAT,[4]; Rate 0.2500 kg/ha,9.0
same,TRZAWR herbicidal rating,[5]; rate 0.0320 kg/ha,3.0
same,TRZAWR herbicidal rating,[5]; rate 0.0620 kg/ha,3.5
same,IPOHE herbicidal rating,[6]; rate 0.0320 kg/ha,7.0
same,IPOHE herbicidal rating,[6]; rate 0.0620 kg/ha,9.0
same,ORYSAT herbicidal rating,[7]; rate 0.0320 kg/ha,3.5
same,ORYSAT herbicidal rating,[7]; rate 0.0620 kg/ha,4.0
same,Preemergence herbicidal rating GALAP,[8]; Rate 0.0620 kg/ha,7.0
same,Preemergence herbicidal rating GALAP,[8]; Rate 0.1250 kg/ha,9.0
same,Preemergence herbicidal rating GALAP,[8]; Rate 0.2500 kg/ha,9.0
same,ABUTH herbicidal rating,[9]; rate 0.0320 kg/ha,9.0
same,ABUTH herbicidal rating,[9]; rate 0.0620 kg/ha,9.0
same,SETVI herbicidal rating,[10]; rate 0.0320 kg/ha,7.0
same,SETVI herbicidal rating,[10]; rate 0.0620 kg/ha,9.0
same,"herbicidal rating, SAGPY",[11]; rate 0.0080 kg/ha,0.0
same,"herbicidal rating, SAGPY",[11]; rate 0.0320 kg/ha,0.0
same,"herbicidal rating, SAGPY",[11]; rate 0.1250 kg/ha,9.0
same,GALAP herbicidal rating,[12]; rate 0.0320 kg/ha,5.0
same,GALAP herbicidal rating,[12]; rate 0.0620 kg/ha,7.0
same,CASOB herbicidal rating,[13]; rate 0.0320 kg/ha,4.0
same,CASOB herbicidal rating,[13]; rate 0.0620 kg/ha,5.0
same,AMBEL herbicidal rating,[14]; rate 0.0320 kg/ha,9.0
same,AMBEL herbicidal rating,[14]; rate 0.0620 kg/ha,9.0
same,CHEAL herbicidal rating,[15]; rate 0.0320 kg/ha,9.0
same,CHEAL herbicidal rating,[15]; rate 0.0620 kg/ha,9.0
same,Preemergence herbicidal rating CASOB,[16]; Rate 0.0620 kg/ha,5.0
same,Preemergence herbicidal rating CASOB,[16]; Rate 0.1250 kg/ha,8.5
same,Preemergence herbicidal rating CASOB,[16]; Rate 0.2500 kg/ha,9.0
same,Preemergence herbicidal rating AMBEL,[17]; Rate 0.0620 kg/ha,9.0
same,Preemergence herbicidal rating AMBEL,[17]; Rate 0.1250 kg/ha,9.0
same,Preemergence herbicidal rating AMBEL,[17]; Rate 0.2500 kg/ha,9.0
same,Preemergence herbicidal rating CHEAL,[18]; Rate 0.0620 kg/ha,9.0
same,Preemergence herbicidal rating CHEAL,[18]; Rate 0.1250 kg/ha,9.0
same,Preemergence herbicidal rating CHEAL,[18]; Rate 0.2500 kg/ha,9.0
same,"herbicidal rating, CYPIR",[19]; rate 0.0080 kg/ha,7.0
same,"herbicidal rating, CYPIR",[19]; rate 0.0320 kg/ha,8.0
same,"herbicidal rating, CYPIR",[19]; rate 0.1250 kg/ha,9.0
